Laboratory results reported in US10857180B2, “Pharmaceutical composition for improving health, cure abnormalities and degenerative disease, achieve anti-aging effect of therapy and therapeutic effect on mammals and method thereof” (priority 2014, dated 2020).
Marks after values point to notes of the source that are not given here.

What was measured:
[1] = tested on: normal rat kidney cells (NRK line); experiment: Immunocytochemistry of NRK cells; assay type: cell-based
Protocol: When making the immunocytochemistry (ICC) assay, cells on microscope glasses (cytospin preparations) were fixed in the solution (methanol+acetone 1:1) for 2 hours at t 20° C. and incubated with 1% solution of bovine serum albumin (BSA) for 20 minutes. Then the monoclonal antibodies-CD44 (Diagnostic BioSystems), E-cadherin (ThermoScientific), N-cadherin (NeoMarker, BioLegend), SLUG (GeneTex)—were applied for the time period specified by the manufacturer (30 to 60 minutes), after which the Poly Vue imaging system conjugated with peroxidase was used and the enzyme activity was detected using diaminobenzidine (ThermoScientific) as a substrate. After the immunocytochemical reaction the preparations were washed with water and counterstained with hematoxylin-eosin (for 15 to 30 seconds).
The results were analyzed by counting cells with expression (brown colored cells) using a light microscope, and were assessed using the classical H-Score method: S=1×A+2×B+3×C, where S is the H-Score index giving a range of 0 (protein is not detected) to 300 (high-level expression in 100% of the cells); A is the percentage of weakly staining cells, B is the percentage of moderately staining cells and C is the percentage of strongly staining cells.

MCF-7 cell line = experiment: Cytogenetic analysis (micronucleus test) of MCF-7 cells; assay type: cell-based, human
Protocol: Advanced Micronucleus Test was used to assess the cytogenetic characteristics of cells after their exposure to the action of the test group of components.
Cytogenetic analysis was carried out after 48 hours of exposure of the cells to the action of the components. For cytogenetic analysis, the cells were incubated in hypotonic solution KCl (0.54%) (Reahim, Ukraine) for 40 minutes at +37° C. Then they were fixed with a mixture of methyl alcohol (Reahim, Ukraine) and acetic acid (Himlaborreaktiv, Ukraine) (3:1) with replacing the fixative three times. All fixed cell suspensions were applied on cold wet glasses, dried and stained with Giemsa stain (Sigma, Germany). The cytogenetic preparations were analyzed using a binocular microscope Sari Zeiss, AxioStarPlus (Germany) with magnification of x 1000. The following quantitative characteristics and stages of cell division were analyzed on the preparations: mitoses, cells with premature chromosome condensation (PCC), cells with micronuclei (CMN), apoptotic cells and cells with nuclear protrusions (protrusions) which were calculated for 1000 cells and expressed in per mille (%).

[2] = tested on: human melanoma tumor cells (MM-4 cell line); experiment: Scratch assay, MM-4 cells; assay type: cell-based; settings: ^64Zn 15 mcg/ml; 48 hours in control
Protocol: The cells of A-549, A-431, NRK, HaCaT, MM-4, normal fibroblasts (derived from the Bank of Cell Lines from human and animal tissues, R. E. Kavetsky Institute of Experimental Pathology, Oncology and Radiobiology, National Academy of Sciences of Ukraine) were cultured in complete culture medium RPMI 1640/DMEM (PAA, Austria) (depending on the cell type) supplemented with 10% fetal calf serum (PAA, Austria) and incubated in 5% CO2 humidified atmosphere at 37° C. The culture medium was replaced in 2 to 3 days and the cells were passaged in 4 to 5 days.
Analysis of the influence of the components under study on the cell migration rate was performed using the scratch assay method. […]
The plate was incubated in a CO2 incubator for additional 48 hours. After the cells formed a dense monolayer it was damaged (by making a “scratch”) and the growth medium was replaced to remove cell debris and smooth the edges of the “scratch.” The rate of cell migration was analyzed using an inverted microscope and by photographing cells in the area of injury. The migration activity of cells was fixed at several time points (depending on the cell line analyzed). The microphotomicrographs were analyzed and the cell incubation time needed to restore the monolayer was determined for all experimental groups. […]

[3] = tested on: Ehrlich ascites carcinoma (EAC); experiment: Ehrlich ascites carcinoma (EAC) mouse model; assay type: in vivo
From the text: 10 male outbred mice (5 mice per group) at the age of 10 weeks, weighing 19-23 g were used in Ehrlich ascites carcinoma (EAC) model. Before the experiment, all the animals were healthy, with normal behavioral performance. During the experiment, the animals were kept in plastic cages under natural light illumination, on a standard diet with free access to food and water. An ascites strain of mouse breast cancer (EAC) maintained in outbred mice was used in the experiment. To inoculate the strain, the tumor cells derived from the ascitic fluid were placed in saline solution. The suspension cellularity was evaluated in the hemocytometer and adjusted to a concentration of 1×10^6 cells/ml with saline solution. The tumor was transplanted by injecting […] of the tumor cell suspension (0.25×10^6 cells/mouse) into the abdominal cavity of the animals.
The animals were divided into groups as follows: • Group No 1—control group, mice with EAC+solvent (deuterium-depleted water (this water contains deuterium at a level of 10 ppm)); • Group No 2−mice with EAC+^64Zne aspartate.
The solution comprising ^64Zne aspartate was injected intraperitoneally using a microinjection syringe at a dose of 0.075 mg (75 μg)/mouse every other day (5 times during 10 days) starting from the first day after injection in a volume of 0.5 ml/mouse. […] On the 13th day after i.p. inoculation of tumor cells, the whole ascites fluid was recovered from the animals and the total number of live/dead cells in each mouse was determined. Deuterium-depleted water alone was used instead of a solution of ^64Zne aspartate as control in the experiment.
The dynamics of formation of ascites in the control and experimental groups was assessed visually using a 10-point scale (one point was 0.46 cm of the mean diameter of the mouse abdomen filled with ascites).
In addition, on the 13th day after intraperitoneal inoculation of tumor cells, all ascetic fluid was removed from the abdomens in all animals from each group by washing their peritoneal cavities with saline solution and live and dead tumor cells were counted using the traditional vital dye trypan blue (HyClon, USA) and a hemocytometer.
The number of cells was determined using the following formula: X=((a)/80)×10^6, where X is the number of cells in 1 ml and a is the number of cells counted in 80 small squares of the hemocytometer.

[4] = tested on: acute promyelocyte leukemia (HL-60 line) cells; experiment: Immunocytochemical analysis (H-Score) of HL-60 cells; assay type: cell-based, human
Protocol: Materials and methods for leukemia cell lines HL-60 and Namalva and cell culture conditions will now be described. Initial HL-60 and Namalva cells were cultured in complete RPMI 1640 medium (PAA) (PAA, Austria) supplemented with 10% fetal calf serum (PAA) and incubated in 5% CO2 humidified atmosphere at 37° C. The culture medium was replaced in 2 to 3 days and the cells were passaged in 4 to 5 days.
In carrying out the immunocytochemical (ICC) assay, cells on microscope glasses (cytospin preparations) were fixed in the solution (methanol+acetone (1:1)) for 2 hours at t−20° C. and then incubated with a 1% solution of bovine serum albumin (BSA) for 20 minutes.
After the immunocytochemical reaction, the preparations were rinsed with water and counterstained with hematoxylin and eosin for 15 to 30 seconds. The results were analyzed by a quantitative estimation of cells with the marker expression (increased brown color of cells corresponded to a higher degree of expression of the marker) using a light microscope and assessed using the classical H-Score method: S=1×A+2×B+3×C, where S is the H-Score index the values of which are within the scope of 0 (protein is not detectable) to 300 (high-level expression in 100% of the cells), A is a percentage of weakly stained cells, B is the percentage of moderately stained cells, and C the percentage of strongly stained cells.

## O=S(=O)([O-])[O-].[64Zn+2] [^64Zn]
[1]
  phenotype of normal cells: has not changed
MCF-7 cell line
  level of cells with micronuclei: more than a two-fold increase
[2]
  time of the gap closing: 72 h

## NC(CC(=O)[O-])C(=O)[O-].[64Zn+2] (racemic) [^64Zne aspartate, ^64Zn aspartate (racemic)]
[3]; after 5 injections
  suppression of growth of Ehrlich ascites carcinoma: 100%
[3]; day 7 after inoculation, 75 μg/mouse i.p. every other day x5
  Volume of ascites in mice: 0* points
[3]; day 9, 75 μg/mouse i.p. x5
  Volume of ascites in mice: 0** points
[3]; day 11, 75 μg/mouse i.p. x5
  Volume of ascites in mice: 0* points
[3]; day 13, 75 μg/mouse i.p.
  Number of dead cells/mouse: 0
  Number of live cells/mouse (M ± m): 0* cells/mouse
  Volume of ascites (M ± m): 0* ml/mouse
[3]; day 13, 75 μg/mouse i.p. x5
  Volume of ascites in mice: 0** points

## [39K+].[Cl-] [^39K]
[4]
  amount of N-cadherin-positive cells: in most cases increased
[4]; ^39K 2 and 0.5 mg/ml, ^64Zn 10 mcg/ml
  number of cells expressing ICAM: reduction in the number of cells
[4]; especially in high doses
  level of expression of CD44: tendency to decrease in the level of expression
